Source: US10059720B2, “Pyridine derivative” (Astellas Pharma Inc., priority 2014, dated 2018)
Structures can show the parent of a compound that is named as a salt. Where two headings read alike, the source gives them in different places.

What was measured:
[1] = Antidiuresis test in continuously hydrated rats with additional water loading (oral administration); type: in vivo, Male Wistar rats; details: for change of plasma sodium level (in words): after three hours and four hours of the administration, additional water loads; for urine production after additional water loads: groups with additional water loads (15 mL/kg at 2 h and 3 h); for urine production after additional water loads / plasma sodium level, 3 hours after administration / plasma sodium level, 4 hours after administration / urine production: EX-a 100 mg/kg, EX-b 30 mg/kg; for urine production after additional water loads / urine production: dDAVP 30 μg/kg oral; for plasma sodium level, 3 hours after administration / plasma sodium level, 4 hours after administration: groups with additional water loads, oral, dDAVP 30 μg/kg; for urine production: groups without additional water loads, after two hours of the administration, maintained until four hours
Experimental: FIG. 1 is a graph showing temporal changes in urine volumes of individual groups in the pharmacological test (4): antidiuresis test in continuously hydrated rats with additional water loading. The vertical axis represents urine volume (mL/30 min) and the horizontal axis represents elapsed time (hr) from the administration of the test compound. Groups represented by “ . . . +Water” are water-loaded groups. The arrows in the horizontal axis represent the time points of additional water-loading.
(4) Antidiuresis Test in Continuously Hydrated Rats with Additional Water Loading (Oral Administration)
Male Wistar rats were used in the test. Initially, water load with 15 mL/kg of distilled water was forcedly administered to the rats. Every 30 minutes after loading water, urine volume collected during 30 minutes was measured and distilled water was forcedly administered to the rats in an amount equal to the urine volume excreted during the last 30 minutes. This water load procedure was repeated to the termination of the test to maintain the diuretic state. […] The individual groups were further divided into two subgroups, and additional distilled water of 15 mL/kg load was forcedly administered to one of the subgroups two times, i.e. at two hours and three hours after the administration. For comparison, the Vehicle group administered only with the vehicle was also subjected to the additional administrations of water load. Blood was collected from a half of the rats in each group subjected to additional administrations of water load, at three hours after the administration (immediately before the second additional water load) and from the other half at four hours after the administration, and plasma sodium levels were measured with an automatic electrolyte analyzer to determine the plasma sodium levels at three hours and four hours after the administration, respectively (each group consisted of seven to eight rats). Changes in the urine volume in individual groups are shown in FIG. 1, and the plasma sodium levels of the group administered with additional water loads are shown in Table 4.

IRAP = IRAP (Rattus norvegicus (Rat), UniProt P97629); test: Inhibition of IRAP activity (AVP degradation by rat epididymal fat pad microsomes, MALDI-MS); details: read-out: IRAP IC50
Chain of IRAP (P97629 whole entry): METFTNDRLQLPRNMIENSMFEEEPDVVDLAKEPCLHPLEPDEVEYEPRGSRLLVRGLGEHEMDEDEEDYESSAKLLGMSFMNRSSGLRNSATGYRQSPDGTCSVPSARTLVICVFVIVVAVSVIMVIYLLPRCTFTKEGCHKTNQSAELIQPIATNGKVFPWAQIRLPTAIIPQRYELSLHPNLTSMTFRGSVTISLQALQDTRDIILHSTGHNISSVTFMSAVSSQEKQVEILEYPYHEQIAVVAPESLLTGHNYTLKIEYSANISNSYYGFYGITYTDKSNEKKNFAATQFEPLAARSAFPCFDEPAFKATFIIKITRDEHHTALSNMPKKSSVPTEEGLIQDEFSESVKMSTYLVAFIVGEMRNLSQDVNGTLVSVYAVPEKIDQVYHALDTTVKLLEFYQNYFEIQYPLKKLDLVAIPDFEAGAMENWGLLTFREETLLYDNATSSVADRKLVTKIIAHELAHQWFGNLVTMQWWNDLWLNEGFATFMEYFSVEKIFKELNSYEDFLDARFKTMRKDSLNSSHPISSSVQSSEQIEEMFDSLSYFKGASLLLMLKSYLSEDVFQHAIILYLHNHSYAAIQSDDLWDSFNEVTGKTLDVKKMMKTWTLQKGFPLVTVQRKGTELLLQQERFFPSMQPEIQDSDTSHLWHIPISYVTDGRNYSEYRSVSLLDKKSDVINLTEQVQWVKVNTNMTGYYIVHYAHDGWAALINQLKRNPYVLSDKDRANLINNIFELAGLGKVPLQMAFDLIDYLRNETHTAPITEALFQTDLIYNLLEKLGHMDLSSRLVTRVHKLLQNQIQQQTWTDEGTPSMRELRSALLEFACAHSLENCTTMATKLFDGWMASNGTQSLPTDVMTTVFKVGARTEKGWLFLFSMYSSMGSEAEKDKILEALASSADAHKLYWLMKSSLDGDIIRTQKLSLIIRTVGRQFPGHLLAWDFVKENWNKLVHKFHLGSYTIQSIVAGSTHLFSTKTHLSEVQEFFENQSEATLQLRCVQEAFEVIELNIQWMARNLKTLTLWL

[2] = rat fat pad microsomes, AVP 25 μM, 1 h at 37° C.

| Structure (SMILES) | IC50 (IRAP; [2]) | other results |
| --- | --- | --- |
| NC(=O)CC[C@@H]1NC(=O)[C@H](Cc2ccccc2)NC(=O)[C@H](Cc2ccc(O)cc2)NC(=O)CCSSC[C@@H](C(=O)N2CCC[C@H]2C(=O)N[C@H](CCCN=C(N)N)C(=O)NCC(N)=O)NC(=O)[C@H](CC(N)=O)NC1=O [dDAVP, Desmopressin, reference compound] |  | change of plasma sodium level (in words) [1]: more significant decreases; urine production after additional water loads [1]: not resumed; plasma sodium level, 3 hours after administration [1]: 132.0 ± 0.4 mmol/L; plasma sodium level, 4 hours after administration [1]: 128.0 ± 0.3 mmol/L; urine production [1]: almost stopped |
| COc1cccc(Oc2ccnc(C[C@](O)(C(=O)O)[C@@H](N)CC(C)C)c2)c1 [Example 101] | 200 nM |  |
| CC(C)C[C@H](N)[C@](O)(Cc1cc(O)ccn1)C(=O)O [7(2), (2R,3S)-3-amino-2-hydroxy-2-[(4-hydroxypyridin-2-yl)methyl]-5-methylhexanoic acid] | 200 nM |  |
| N[C@@H](/C=C/c1ccccc1)[C@](O)(Cc1cc(OC2CCCCC2)ccn1)C(=O)O [Example 40] | 8 nM |  |
| CC(C)C[C@H](N)[C@@]1(Cc2cc(O[C@H]3CC[C@H](C)CC3)ccn2)OC(C)(C)OC1=O [Example 8, (5R)-5-[(1S)-1-amino-3-methylbutyl]-2,2-dimethyl-5-({4-[(trans-4-methylcyclohexyl)oxy]pyridin-2-yl}methyl)-1,3-dioxolan-4-one dihydrochloride] | 170 nM |  |
| CS(=O)(=O)c1ccc(-c2ccc([C@H](N)[C@](O)(Cc3cc(OC4CCCCC4)ccn3)C(=O)O)cc2)cc1 [Example 45] | 0.42 nM |  |
| N[C@@H](c1ccc(-c2ccccc2)cc1)[C@](O)(Cc1cc(OC2CCCCC2)ccn1)C(=O)O [Example 36] | 4.9 nM |  |
| N[C@@H](c1ccc(Br)cc1)[C@](O)(Cc1cc(OC2CCCCC2)ccn1)C(=O)O [Example 68] |  | IC50 (IRAP; value marked *: measured using a dihydrochloride salt of the compound of the Example): 5.4 nM |
| CC(C)C[C@H](N)[C@](O)(Cc1cc(OCCOC2CCCCC2)ccn1)C(=O)O [Example 97] | 2.8 nM |  |
| COCc1ccc(OC[C@H](N)[C@](O)(Cc2cc(OC3CCCCC3)ccn2)C(=O)O)cc1 [Example 30] | 11 nM |  |
| CCSC[C@H](N)[C@](O)(Cc1cc(O[C@H]2CC[C@H](C)CC2)ccn1)C(=O)O [EX-b, (2R,3R)-3-amino-4-(ethylsulfanyl)-2-hydroxy-2-({4-[(trans-4-methylcyclohexyl)oxy]pyridin-2-yl}methyl)butanoic acid] |  | change of plasma sodium level (in words) [1]: slightly decreased; urine production after additional water loads [1]: resumed after administration of the additional water loads; plasma sodium level, 3 hours after administration [1]: 140.4 ± 0.4 mmol/L; plasma sodium level, 4 hours after administration [1]: 139.2 ± 0.5 mmol/L; urine production [1]: almost stopped |
| N[C@@H](c1ccc(N2CCOCC2)cc1)[C@](O)(Cc1cc(OC2CCCCC2)ccn1)C(=O)O [Example 48] | 5.2 nM |  |
| COc1cc(F)cc(OC[C@H](N)[C@](O)(Cc2cc(OC3CCCCC3)ccn2)C(=O)O)c1 [Example 31] | 27 nM |  |
| COCc1ccc([C@H](N)[C@](O)(Cc2cc(OC3CCCCC3)ccn2)C(=O)O)cc1 [Example 50] | 14 nM |  |
| CC(C)C[C@H](N)[C@](O)(Cc1cc(O[C@H]2CC[C@H](C)CC2)ccn1)C(=O)O (relative stereo) [EX-a, (2R,3S)-3-amino-2-hydroxy-5-methyl-2-({4-[(trans-4-methylcyclohexyl)oxy]pyridin-2-yl}methyl)hexanoic acid] |  | change of plasma sodium level (in words) [1]: slightly decreased; urine production after additional water loads [1]: resumed after administration of the additional water loads; plasma sodium level, 3 hours after administration [1]: 134.9 ± 0.4 mmol/L; plasma sodium level, 4 hours after administration [1]: 133.2 ± 0.7 mmol/L; urine production [1]: almost stopped |
| CC(C)C[C@H](N)[C@](O)(Cc1cc2c(cn1)OCCO2)C(=O)O [Example 62] | 290 nM |  |
| COc1cc(C[C@](O)(C(=O)O)[C@@H](N)CC(C)C)ncc1Br [Example 53] | 290 nM |  |
| COc1cc(C[C@](O)(C(=O)O)[C@@H](N)CC(C)C)ncc1COCc1ccccc1 [Example 57] | 130 nM |  |
| CC(C)C[C@H](N)[C@](O)(Cc1cc2c(cn1)ncn2CCC1CCCCC1)C(=O)O [Example 33] | 2.5 nM |  |
| N[C@@H](c1ccc(S(=O)(=O)C2CC2)cc1)[C@](O)(Cc1cc(OC2CCCCC2)ccn1)C(=O)O [Example 24] | 6.2 nM |  |
| C[C@H]1CC[C@H](Oc2ccnc(C[C@](O)(C(=O)O)[C@@H](N)Cn3cccn3)c2)CC1 [Example 85] | 110 nM |  |
| COc1ccnc(C[C@](O)(C(=O)O)[C@@H](N)CC(C)C)c1C [Example 22] | 250 nM |  |
| N[C@@H](COCc1ccccc1)[C@](O)(Cc1cc(OC2CCCCC2)ccn1)C(=O)O [Example 51] | 13 nM |  |

Now from value to compound, other results behind:

| IC50 (IRAP; [2]) | Structure (SMILES) | other results |
| --- | --- | --- |
| 8.8 nM | Cc1ccc(OC[C@H](N)[C@](O)(Cc2cc(OC3CCCCC3)ccn2)C(=O)O)nc1 [Example 77] |  |
| 15 nM | N[C@@H](COc1ccc(F)cc1)[C@](O)(Cc1cc(NC2CCCCC2)ccn1)C(=O)O [Example 91] |  |
| 5.3 nM | N[C@@H](COCCC(F)(F)F)[C@](O)(Cc1cc(OC2CCCCC2)ccn1)C(=O)O [Example 74] |  |
| 8.2 nM | N[C@@H](c1ccc(C2CC2)cc1)[C@](O)(Cc1cc(OC2CCCCC2)ccn1)C(=O)O [Example 23] |  |
| 1.9 nM | CC(C)CC[C@H](N)[C@](O)(Cc1cc(OC2CCCCC2)ccn1)C(=O)O [Example 66] |  |
| 33 nM | N[C@@H](COC1CCCCC1)[C@](O)(Cc1cc(OCCC2CC2)ccn1)C(=O)O [Example 79] |  |
| 15 nM | NC(COc1ccccc1Br)C(O)(Cc1cc(OC2CCCCC2)ccn1)C(=O)O (centres unmarked) [Example 71] |  |
| 1.2 nM | COCCCCC[C@H](N)[C@](O)(Cc1cc(OC2CCCCC2)ccn1)C(=O)O [Example 75] |  |
| 13 nM | N[C@@H](COc1cccc(Br)c1)[C@](O)(Cc1cc(OC2CCCCC2)ccn1)C(=O)O [Example 70] |  |
